1 compound from patent US20250257054A1, “SALT FORMS OF A 4H-PYRAN-4-ONE STRUCTURED CYP11 A1 INHIBITOR” (ORION CORPORATION, priority 2021, published 2025) can be followed below.

Counter-ions that a name gives are not always drawn.

What all share (type): physicochemical
The nature of data set [1]: Crystalline transformation of form 2 on drying. To be noted: higher drying temperatures (than about 20-60° C., under reduced pressure). As for the experimental part:
In a preferred method, crystalline form 2 is prepared in high polymorphic purity and in consistent manner by first dissolving compound (I) in a mixture of acetonitrile and water, where the amount of water is from about 5% to about 15%, preferably from 6% to 12%, per volume of the mixture. The amount of compound (I) is suitably from about 5 g to about 15 g, preferably from about 9 g to 13 g, for example, about 11 g, per 100 ml of the solvent. If desired, activated carbon, celite and/or triamine metal scavenger may also be added. The mixture may be heated, for example, to a temperature of about 50-80° C., more specifically to about 70-80° C. The mixture can be thereafter filtered. To the filtrate is then added p-toluenesulfonic acid monohydrate, for example, in about equivalent molar amount, under heating at a temperature of about 50-80° C., more specifically at about 70° C. The mixture may then be cooled to about 60° C. and seeded, if desired. The mixture can then be stirred in this temperature for about 1 h, followed by cooling, for example to about 0-20° C., more specifically to about 5° C., to precipitate the product. The crystalline form 2 can be washed, for example, with water, and dried at about 20-60° C., preferably at about 25-35° C., for example at about 30° C., under reduced pressure. […]

Data set [2] can be described thus: Slurry stability of crystalline forms of p-toluenesulfonic acid salt in different water activity conditions (XRPD). To be noted: slurry experiments, 5-40° C., 2-3 weeks; values stated as 'about'; listed as Crystalline form 2 of p-toluenesulfonic acid salt. As for the experimental part:
(§1) XRPD measurements were performed with the X-ray powder diffractometer Bruker D8 Advance at room temperature, using a copper filled X-ray tube (40 kV×40 mA) as the X-ray source, CuKα (λ=1.5418 Å), a 0.6 mm divergence slit, 2.5° Soller slits on both the primary and secondary beams and the 1-dimensional LynxEye detector (with aperture angle of 2.91593°). Data collection was done in the range of 3.8-33° 2θ with 0.02° increments, at a scan speed of 0.3°/s.
Stability of the crystalline forms of p-toluenesulfonic acid salt in different water activity conditions was studied in slurry experiments where crystalline form 3 was stirred for 2-3 weeks at 5° C., 25° C. and 40° C. in mixtures of ethanol:water, acetonitrile (ACN):water, methanol: water and methanol alone. 0.5 ml of solvent was added to 25 mg of each sample. The resulting crystalline form was determined by XRPD.

A short description of data set [3]: Short-term physical stability of salts at 40° C./75% RH for 2 weeks (XRPD). To be noted: determined by XRPD. As for the experimental part:
as §1
Short-term physical stability of various salts was studied by exposure at 40° C./75% RH for 2 weeks followed by measurement by XRPD.

As to `CS(=O)(=O)N1CCC(COc2coc(CN3Cc4ccc(C(F)(F)F)cc4C3)cc2=O)CC1` [p-Toluenesulfonic acid salt (form 2), 5-((1-(methylsulfonyl)-piperidin-4-yl)methoxy)-2-((5-(trifluoromethyl)isoindolin-2-yl)methyl)-4H-pyran-4-one], in data set [1], the “Crystalline transformation on drying” value is on record as “some transformation of crystalline form 2 into crystalline form 1”. Besides, in data set [2], the “Water activity in which the crystalline form is favoured” value is “higher than 0.5”. Besides, the “Form after 2 weeks” value in data set [3] is given as “No change”.
